The text below walks through data of patent US20260184663A1, “INDENE COMPOUNDS, PHARMACEUTICAL COMPOSITIONS THEREOF, AND THEIR THERAPEUTIC APPLICATIONS” (NucMito Pharmaceuticals co. Ltd., priority 2022, published 2026).

What all share (assay type): cell-based
In experiment [1] the test system is SW480 (colon cancer). Put plainly: Antiproliferative activity (CCK-8 cell viability), SW480. Particulars: Homo sapiens, 72 h; for inhibition at 3.3 µM: Compound concentration: 3.3 μM; for inhibition at 3.3 µM / inhibition at 10 µM: read-out: Antiproliferative activity in cancerous cells, SW480 (inhibition of cell growth); for inhibition at 10 µM: Compound concentration: 10 μM; for inhibition at 30 µM: Compound concentration: 30 μM, read-out: Antiproliferative activity in cancerous cells, SW480. The gist of the method:
(§1)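 Cells were seeded at 2,000-5,000/well (HeLa in MEM, HepG2 and SW480 in DMEM, A549 in F-12K, all with 10% FBS) and treated with compound at 3.3, 10 or 30 μM for 72 h at 37° C. CCK-8 was added for 4 h, absorbance was read at 450 nm, and viability was expressed relative to DMSO-treated wells.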

In experiment [2] the test system is HepG2 (liver cancer). Put plainly: Antiproliferative activity (CCK-8 cell viability), HepG2. The following applies: Homo sapiens, 72 h; for inhibition at 3.3 µM: Compound concentration: 3.3 μM; for inhibition at 3.3 µM / inhibition at 10 µM: read-out: Antiproliferative activity in cancerous cells, HepG2 (inhibition of cell growth); for inhibition at 10 µM: Compound concentration: 10 μM. In short, it runs like this:
as §1

Experiment [3] has as its system HeLa (cervical cancer). Put plainly: Antiproliferative activity (CCK-8 cell viability), HeLa. Particulars: Homo sapiens, 72 h; for inhibition at 3.3 µM: Compound concentration: 3.3 μM; for inhibition at 3.3 µM / inhibition at 10 µM: read-out: Antiproliferative activity in cancerous cells, HELA (inhibition of cell growth); for inhibition at 10 µM: Compound concentration: 10 μM. The gist of the method:
as §1

Experiment [4] relates to B16F10 (malignant melanoma). Nature of the experiment: Antiproliferative activity (CCK-8 cell viability), B16F10. The following applies: Mus musculus, 72 h, read-out: Antiproliferative activity in cancerous cells, B16F10 (inhibition of cell growth); for inhibition at 3.3 µM: B16-F10, Compound concentration: 3.3 μM; for inhibition at 10 µM: B16-F10, Compound concentration: 10 μM. In short, it runs like this:
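Attached B16F10 cells in 96-well plates were incubated with compound at 37° C for 72 h, followed by 10 μL CCK-8 reagent per well and a further 4 h incubation. A multi-well plate reader measured absorbance at 450 nm. Percent viability across replicates was calculated against DMSO vehicle-treated cells.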

Experiment [5] has as its system A431 (epidermoid carcinoma). Put plainly: Antiproliferative activity (CCK-8 cell viability), A431. Particulars: Homo sapiens, 72 h, read-out: Antiproliferative activity in cancerous cells, A431 (inhibition of cell growth); for inhibition at 3.3 µM: A-431, Compound concentration: 3.3 μM; for inhibition at 10 µM: A-431, Compound concentration: 10 μM. In short, it runs like this:
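Cell viability of compound-treated A431 cells was measured with a Cell Counting Kit-8. Each well received 10 μL of CCK-8 after 72 h of compound exposure, followed by 4 h incubation at 37° C. and a 450 nm plate-reader measurement. Percent viability was calculated relative to DMSO controls across replicates.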

Experiment [6] concerns A549 (lung adenocarcinoma). Put plainly: Antiproliferative activity (CCK-8 cell viability), A549. The following applies: Homo sapiens, 72 h; for inhibition at 3.3 µM: Compound concentration: 3.3 μM; for inhibition at 3.3 µM / inhibition at 10 µM: read-out: Antiproliferative activity in cancerous cells, A549 (inhibition of cell growth); for inhibition at 10 µM: Compound concentration: 10 μM. In short, it runs like this: as §1

Experiment [7] has as its system alpha-smooth muscle actin (α-SMA). Put plainly: Inhibition of TGF-β induced expression of alpha-smooth muscle actin (α-SMA) in CFSC cells (western blot). Particulars: compound at 10 μM, TGF-β (10 ng/mL), 24 hours, band intensity vs TGF-β only. The gist of the method:
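CFSC hepatic stellate cells in serum-free DMEM treated 24 h at 37 °C with compound at 10 μM plus TGF-β (10 ng/mL). α-SMA measured by Western blot with β-actin, ECL detection, densitometry. Percent inhibition is decrease in band intensity versus TGF-β-only cells.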
A general note: A western blot detects proteins with antibodies after separation by electrophoresis.

For experiment [8], the system named is MDA-MB-231 (breast cancer). Put plainly: Antiproliferative activity (CCK-8 cell viability), MDA-MB-231. The following applies: Homo sapiens, 72 h; for inhibition at 3.3 µM: Compound concentration: 3.3 μM; for inhibition at 3.3 µM / inhibition at 10 µM: read-out: Antiproliferative activity in cancerous cells, MDA-MB-231 (inhibition of cell growth); for inhibition at 10 µM: Compound concentration: 10 μM. The gist of the method: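 In this CCK-8 viability assay, MDA-MB-231 cells maintained in Dulbecco's modified Eagle's medium containing 10% fetal bovine serum were placed in 96-well plates (2,000-5,000 cells/well) and treated with compound for 72 h at 37° C. A 4 h incubation with 10 μL CCK-8 followed, plates were read at 450 nm, and viability was expressed against DMSO vehicle wells across replicates.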

Consider `CC1=C(CC(=O)O)c2cc(C)ccc2/C1=C\c1ccc(Oc2ccc(F)cc2)cc1` [C4, (Z)-2-(1-(4-(4-Fluorophenoxy)benzylidene)-2,5-dimethyl-1H-inden-3-yl)acetic acid], for which the inhibition at 3.3 µM in experiment [1] was less than 30%; in experiment [2], 30 to 50%; in experiment [3], less than 30%; in experiment [4], less than 30%; in experiment [5], less than 30%; in experiment [6], less than 30%. The inhibition at 3.3 µM in experiment [8] is less than 30%. Also, the inhibition at 10 µM is less than 30% in experiment [1]; no less than 50% in experiment [2]; no less than 50% in experiment [3]; less than 30% in experiment [4]; 30 to 50% in experiment [5]; 30 to 50% in experiment [6]. The inhibition at 10 µM in experiment [7] is greater than 80%; in experiment [8], 30 to 50%. Further, the inhibition at 30 µM in experiment [1] lay within 30 to 50%.
In the case of `CCc1ccc2c(c1)C(CC(=O)O)=C(C)/C2=C/c1ccc(Oc2ccc(F)cc2)cc1` [C5, (Z)-2-(5-Ethyl-1-(4-(4-fluorophenoxy)benzylidene)-2-methyl-1H-inden-3-yl)-acetic acid], the inhibition at 3.3 µM was less than 30% in experiment [1]; no less than 50% in experiment [2]; less than 30% in experiment [3]; less than 30% in experiment [4]; no less than 50% in experiment [5]; 30 to 50% in experiment [6]. For the same compound, the inhibition at 3.3 µM in experiment [8] is less than 30%. Besides, the inhibition at 10 µM in experiment [1] is less than 30%; in experiment [2], no less than 50%; in experiment [3], no less than 50%; in experiment [4], no less than 50%; in experiment [5], no less than 50%; in experiment [6] it was 30 to 50%. For the same compound, the figures for the inhibition at 10 µM in experiment [7] and in experiment [8] were greater than 80% and no less than 50%, respectively.
For `CCC1=C(CC(=O)O)c2cc(F)ccc2/C1=C\c1ccc(Oc2ccc(F)cc2)cc1` [C6, (Z)-2-(2-Ethyl-5-fluoro-1-(4-(4-fluorophenoxy)benzylidene)-1H-inden-3-yl)acetic acid], the inhibition at 3.3 µM in experiment [1] is no less than 50%; in experiment [2] it was less than 30%; in experiment [3], no less than 50%; in experiment [4], 30 to 50%; in experiment [5], 30 to 50%; in experiment [6], 30 to 50%. In experiment [8], the inhibition at 3.3 µM was no less than 50%. Also, the inhibition at 10 µM was no less than 50% in experiment [1]; 30 to 50% in experiment [2]; no less than 50% in experiment [3]; no less than 50% in experiment [4]; no less than 50% in experiment [5]; no less than 50% in experiment [6]. The inhibition at 10 µM in experiment [7] was greater than 80%; in experiment [8], no less than 50%.
With `O=C(O)CC1=C(CC2CCCC2)/C(=C/c2ccc(Oc3ccc(F)cc3)cc2)c2ccc(F)cc21` [C7, (Z)-2-(2-(Cyclopentylmethyl)-5-fluoro-1-(4-(4-fluorophenoxy)benzylidene)-1H-inden-3-yl)acetic acid], the inhibition at 3.3 µM is no less than 50% in experiment [1]; 30 to 50% in experiment [2]; no less than 50% in experiment [3]; no less than 50% in experiment [4]; no less than 50% in experiment [5]; no less than 50% in experiment [6]. Moreover, the inhibition at 3.3 µM in experiment [8] is no less than 50%. Also, the inhibition at 10 µM in experiment [1], in experiment [2], in experiment [3], in experiment [4], in experiment [5] and in experiment [6] was no less than 50% throughout. Besides, the inhibition at 10 µM in experiment [7] was greater than 80%; in experiment [8], no less than 50%.
`CCCC1=C(CC(=O)O)c2cc(F)ccc2/C1=C\c1ccc(Oc2ccc(F)cc2)cc1` [C8, (Z)-2-(5-Fluoro-1-(4-(4-fluorophenoxy)benzylidene)-2-propyl-1H-inden-3-yl)-acetic acid]: the inhibition at 3.3 µM was less than 30% in experiment [1]; no less than 50% in experiment [2]; no less than 50% in experiment [3]; 30 to 50% in experiment [4]; less than 30% in experiment [5]; no less than 50% in experiment [6]. The inhibition at 3.3 µM in experiment [8] was no less than 50%. For the same compound, the inhibition at 10 µM in experiment [1], in experiment [2], in experiment [3], in experiment [4], in experiment [5] and in experiment [6] was no less than 50% throughout. For the same compound, the inhibition at 10 µM in experiment [7] is greater than 80%; in experiment [8], no less than 50%.
With `CC1=C(CC(=O)O)c2c(F)cccc2/C1=C\c1ccc(Oc2ccc(F)cc2)cc1` [C9, (Z)-2-(4-Fluoro-1-(4-(4-fluorophenoxy)benzylidene)-2-methyl-1H-inden-3-yl)-acetic acid], the inhibition at 3.3 µM in experiment [1] is less than 30%; in experiment [2] it was 30 to 50%; in experiment [3] it was less than 30%; in experiment [4], no less than 50%; in experiment [5] it was 30 to 50%; in experiment [6], less than 30%. Further, the inhibition at 3.3 µM in experiment [8] lay in the range of 30 to 50%. Besides, the inhibition at 10 µM is less than 30% in experiment [1]; less than 30% in experiment [2]; less than 30% in experiment [3]; no less than 50% in experiment [4]; 30 to 50% in experiment [5]; less than 30% in experiment [6]. Also, the inhibition at 10 µM in experiment [7] was less than 30%; in experiment [8] it was 30 to 50%. Also, the inhibition at 30 µM is less than 30% in experiment [1]; 30 to 50% in experiment [2] (Compound concentration: 30 μM, read-out: Antiproliferative activity in cancerous cells, HepG2); less than 30% in experiment [3] (Compound concentration: 30 μM, read-out: Antiproliferative activity in cancerous cells, HELA); less than 30% in experiment [6] (Compound concentration: 30 μM, read-out: Antiproliferative activity in cancerous cells, A549); 30 to 50% in experiment [8] (Compound concentration: 30 μM, read-out: Antiproliferative activity in cancerous cells, MDA-MB-231).
Take `CC1=C(CC(=O)O)c2ccc(F)c(F)c2/C1=C\c1ccc(Oc2ccc(F)cc2)cc1` [C10, (Z)-2-(6,7-Difluoro-1-(4-(4-fluorophenoxy)benzylidene)-2-methyl-1H-inden-3-yl)acetic acid]: the inhibition at 3.3 µM in experiment [1] was less than 30%; in experiment [2], 30 to 50%; in experiment [3] it was no less than 50%; in experiment [4], 30 to 50%; in experiment [5] it was less than 30%; in experiment [6], less than 30%. Also, in experiment [8], the inhibition at 3.3 µM is 30 to 50%. Also, the inhibition at 10 µM in experiment [1] was no less than 50%; in experiment [2], 30 to 50%; in experiment [3], no less than 50%; in experiment [4], no less than 50%; in experiment [5], no less than 50%; in experiment [6] it was 30 to 50%. For the same compound, the inhibition at 10 µM in experiment [7] is greater than 80%; in experiment [8] it was no less than 50%.
